Reference: patent US10526311B2 (ASTEX THERAPEUTICS LIMITED, priority 2015, dated 2020)
Where two headings read alike, the source gives them in different places. Each block holds one compound with its values, some of them ahead of it.

Assays:
[1] = test system: SJSA-1 (MDM2 amplified, p53 wild-type osteosarcoma); assay: Protocol A: SJSA-1 growth inhibition (SRB); conditions: Homo sapiens, SJSA-1, 72 h
[2] = test system: SN40R2 (MDM2 amplified, p53 mutated osteosarcoma); assay: Protocol A: SN40R2 growth inhibition (SRB); conditions: 72 h
SJSA-1 = assay: Protocol B: SJSA-1 CellTiter-Glo cell viability
[3] = molecular target: MDM2-p53 interaction (in vitro translated MDM2, biotinylated IP3 peptide) (Homo sapiens, UniProt Q00987); assay: MDM2-p53 interaction 96-well plate binding assay (ELISA)
Chain of MDM2-p53 interaction (in vitro translated MDM2, biotinylated IP3 peptide) (Q00987 whole entry): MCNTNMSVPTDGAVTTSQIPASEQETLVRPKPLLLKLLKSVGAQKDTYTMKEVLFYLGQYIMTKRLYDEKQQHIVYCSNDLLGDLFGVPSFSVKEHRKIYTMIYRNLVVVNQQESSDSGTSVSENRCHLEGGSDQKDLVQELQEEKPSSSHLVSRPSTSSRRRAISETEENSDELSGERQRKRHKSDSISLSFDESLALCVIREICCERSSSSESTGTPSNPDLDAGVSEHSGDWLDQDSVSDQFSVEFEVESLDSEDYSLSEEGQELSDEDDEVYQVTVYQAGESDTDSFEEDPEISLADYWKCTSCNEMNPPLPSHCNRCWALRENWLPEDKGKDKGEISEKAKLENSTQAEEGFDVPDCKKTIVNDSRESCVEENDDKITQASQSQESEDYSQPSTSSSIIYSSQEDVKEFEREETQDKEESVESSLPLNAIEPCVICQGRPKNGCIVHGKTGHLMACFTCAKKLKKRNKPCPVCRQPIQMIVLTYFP

[4] = read-out: SJSA-1 IC50 (μM) (Protocol A), SJSA-1, Protocol A (SRB), 72 hrs
[5] = read-out: SN40R2 IC50 (μM) (Protocol A)
[6] = Homo sapiens, SJSA-1, 72 h, read-out: SJSA1 IC50 (μM) (Protocol B), SJSA-1, Protocol B (CellTiter-Glo), 72 hrs
[7] = read-out: SJSA1 IC50 (μM) (Protocol B), SJSA-1, Protocol B (CellTiter-Glo), 72 hrs

Structure (SMILES): CCC(O)(c1cc(F)c2c(c1)C(=O)N(Cc1ccc(C#N)cn1)[C@@]2(OC[C@@H](C)O)c1ccc(Cl)cc1)C1(F)CCOCC1 (single isomer, unassigned) [Example 497]
IC50 [1, 4]: 0.039 µM | IC50 [2, 5]: 45 µM | IC50 (SJSA-1; [6]): 0.046 µM

Structure (SMILES): CCC(O)(c1cc(F)c2c(c1)C(=O)N(Cc1ncc(Cl)cn1)[C@@]2(OCCO)c1ccc(Cl)cc1)C1(F)CCN(C)CC1 (single isomer, unassigned) [Example 565]
IC50 [1, 4]: 0.045 µM | IC50 [2, 5]: 33 µM | IC50 (SJSA-1; [6]): 0.035 µM

Structure (SMILES): CCC(O)(c1cc(F)c2c(c1)C(=O)N(Cc1ncc(Cl)cc1O)[C@@]2(OCCO)c1ccc(Cl)cc1)c1cn(C)cn1 (single isomer, unassigned) [Example 443]
IC50 [2, 5]: 38 µM | IC50 (SJSA-1; [6]): 0.093 µM

Structure (SMILES): CCC(O)(c1cc(F)c2c(c1)C(=O)N(Cc1ccc(C#N)cn1)[C@@]2(O[C@H]1CCOC1)c1ccc(Cl)cc1)C1(F)CCOCC1 (single isomer, unassigned) [Example 446]
MDM2 % @ concentration ([3]; @ 0.0010 μM): 76% @ 0.0010 | IC50 [2, 5]: 29 µM | IC50 (SJSA-1; [7]): 0.023 µM

Structure (SMILES): CCC(O)(c1cc(F)c2c(c1)C(=O)N(Cc1ncc(Cl)cc1O)[C@@]2(O[C@H]1C[C@@H](O)C1)c1ccc(Cl)cc1)c1cn(C)cn1 (single isomer, unassigned) [Example 487]
IC50 [1, 4]: 0.12 µM | IC50 [2, 5]: 27 µM | IC50 (SJSA-1; [6]): 0.025 µM

Structure (SMILES): CO[C@]1(c2ccc(Cl)cc2)c2ccc(C(C)(O)CN3CCOCC3=O)cc2C(=O)N1Cc1ccc(Cl)cn1 (single isomer, unassigned) [Example 328]
inhibition at 0.1 µM ([3]; @ 0.10 μM, read-out: MDM2 % @ concentration): 42% | IC50 ([2]; read-out: SN40R2 IC50 (Protocol A)): 25 µM

Structure (SMILES): CCC(O)(c1cc(F)c2c(c1)C(=O)N(Cc1ccc(C#N)cn1)[C@@]2(O[C@H]1CCOC1)c1ccc(Cl)cc1)c1ccn(C)n1 (single isomer, unassigned) [Example 336]
IC50 [1, 4]: 0.1 µM | IC50 [2, 5]: 42 µM

Structure (SMILES): CO[C@]1(c2ccc(Cl)cc2)c2ccc(C(C)(O)CN3CC(=O)NC3=O)cc2C(=O)N1Cc1ccc(Cl)cn1 (single isomer, unassigned) [Example 329]
MDM2 % @ concentration ([3]; @ 0.30 μM): 61% @ 0.30 | inhibition at 30 µM ([2]; read-out: SN40R2 (Protocol A) % at concentration): 8%

Structure (SMILES): CCC(O)(c1cc(F)c2c(c1)C(=O)N(Cc1ncc(Cl)cn1)[C@@]2(OCC1(C#N)CC1)c1ccc(Cl)cc1)C1(F)CCN(C)CC1 (single isomer, unassigned) [Example 564]
IC50 [2, 5]: 16 µM | IC50 (SJSA-1; [6]): 0.00038 µM

Structure (SMILES): CCC(O)(c1cc(F)c2c(c1)C(=O)N(Cc1ccc(Cl)cn1)[C@@]2(O[C@H]1CCOC1)c1ccc(Cl)cc1)C1(F)CCNCC1 (single isomer, unassigned) [Example 548]
IC50 [1, 4]: 0.14 µM | IC50 [2, 5]: 6.3 µM | IC50 (SJSA-1; [6]): 0.17 µM

Structure (SMILES): CCC(O)(c1cc(F)c2c(c1)C(=O)N(Cc1ncc(Cl)cn1)[C@@]2(O[C@H]1CCOC1)c1ccc(Cl)cc1)C1(F)CCN(C)CC1 (single isomer, unassigned) [Example 571]
IC50 [1, 4]: 0.023 µM | IC50 [2, 5]: 17 µM | IC50 (SJSA-1; [6]): 0.0085 µM

Structure (SMILES): CN1CCC(C(C)(O)c2cc(F)c3c(c2)C(=O)N(Cc2ncc(Cl)cn2)[C@@]3(OCC2(F)COC2)c2ccc(Cl)cc2)CC1 (single isomer, unassigned) [Example 558]
IC50 [1, 4]: 0.22 µM | IC50 [2, 5]: 35 µM | IC50 (SJSA-1; [6]): 0.082 µM

Structure (SMILES): CO[C@]1(c2ccc(Cl)cc2)c2c(F)cc(C(C)(C)O)cc2C(=O)N1Cc1ccc(Cl)cn1 [Example 2, (3R)-3-(4-Chlorophenyl)-2-[(5-chloropyridin-2-yl)methyl]-4-fluoro-6-(2-hydroxypropan-2-yl)-3-methoxy-2,3-dihydro-1H-isoindol-1-one]
IC50 ([1]; read-out: SJSA-1 IC50 (Protocol A), SJSA-1 cells, SRB, 72 hrs): 1.7 µM | IC50 (SJSA-1; Homo sapiens, SJSA-1, 72 h, read-out: SJSA1 IC50 (Protocol B), SJSA-1 cells, CellTiter-Glo, 72 hrs): 3.4 µM

Structure (SMILES): CCC(O)(c1cc(F)c2c(c1)C(=O)N(Cc1ncc(Cl)cn1)[C@@]2(OC[C@@H](C)O)c1ccc(Cl)cc1)C1(F)CCN(C)CC1 (single isomer, unassigned) [Example 572]
IC50 [2, 5]: 18 µM | IC50 (SJSA-1; [6]): 0.022 µM

Next, values leading:

IC50 [1, 4]: 0.056 µM | IC50 [2, 5]: 27 µM | IC50 (SJSA-1; [6]): 0.0064 µM
Structure (SMILES): CC[C@@](O)(c1cc(F)c2c(c1)C(=O)N(Cc1ncc(Cl)cn1)[C@@]2(OCC1(CO)CC1)c1ccc(Cl)cc1)C1CCN(C)CC1 [Example 556, (3R)-3-(4-chlorophenyl)-2-[(5-chloropyrimidin-2-yl)methyl]-4-fluoro-6-[(1S)-1-hydroxy-1-(1-methylpiperidin-4-yl)propyl]-3-{[1-(hydroxymethyl)cyclopropyl]methoxy}-2,3-dihydro-1H-isoindol-1-one]

IC50 [1, 4]: 0.031 µM | IC50 [2, 5]: 36 µM
Structure (SMILES): CC[C@@](O)(c1cc(F)c2c(c1)C(=O)N(Cc1ncc(Cl)cn1)[C@@]2(OC)c1ccc(Cl)cc1)C1CCN(C2COC2)CC1 [Example 551, (3R)-3-(4-chlorophenyl)-2-[(5-chloropyrimidin-2-yl)methyl]-4-fluoro-6-[(1S)-1-hydroxy-1-[1-(oxetan-3-yl)piperidin-4-yl]propyl]-3-methoxy-2,3-dihydro-1H-isoindol-1-one]

IC50 [1, 4]: 0.021 µM | IC50 [2, 5]: 17 µM | IC50 (SJSA-1; [6]): 0.016 µM
Structure (SMILES): CCC(O)(c1cc(F)c2c(c1)C(=O)N(Cc1ncc(C#N)cn1)[C@@]2(OCC1(C#N)CC1)c1ccc(Cl)cc1)C1(F)CCN(C)CC1 (single isomer, unassigned) [Example 574]

IC50 [1, 4]: 0.035 µM | IC50 [2, 5]: 37 µM | IC50 (SJSA-1; [6]): 0.033 µM
Structure (SMILES): CCC(O)(c1cc(F)c2c(c1)C(=O)N(Cc1ccc(C#N)cn1)[C@@]2(OC)c1ccc(Cl)cc1)[C@H]1CC[C@H](O)CC1 (single isomer, unassigned) [Example 521]

IC50 [1, 4]: 0.041 µM | IC50 [2, 5]: 18 µM | IC50 (SJSA-1; [6]): 0.012 µM
Structure (SMILES): CCC(O)(c1cc(F)c2c(c1)C(=O)N(Cc1ncc(Cl)cn1)[C@@]2(O[C@H]1CCOC1)c1ccc(Cl)cc1)C1CCN(C)CC1 (single isomer, unassigned) [Example 449]

IC50 [1, 4]: 0.039 µM | IC50 [2, 5]: 48 µM | IC50 (SJSA-1; [6]): 0.034 µM
Structure (SMILES): CCC(O)(c1cc(F)c2c(c1)C(=O)N(Cc1ncc(C#N)cn1)[C@@]2(OC)c1ccc(Cl)cc1)[C@H]1CC[C@H](O)CC1 (stereo partly drawn) [Example 504, 2-{[(1R)-1-(4-chlorophenyl)-7-fluoro-5-{1-hydroxy-1-[trans-4-hydroxycyclohexyl]propyl}-1-methoxy-3-oxo-2,3-dihydro-1H-isoindol-2-yl]methyl}pyrimidine-5-carbonitrile]

IC50 [1, 4]: 0.032 µM | IC50 [2, 5]: 7.4 µM | IC50 (SJSA-1; [6]): 0.041 µM
Structure (SMILES): CCC(O)(c1cc(F)c2c(c1)C(=O)N(Cc1ncc(Cl)cn1)[C@@]2(OC)c1ccc(Cl)cc1)C1(F)CCNCC1 (single isomer, unassigned) [Example 544]

inhibition at 0.001 µM ([3]; @ 0.0010 μM, read-out: MDM2 % @ concentration): 79% | IC50 [1, 4]: 0.058 µM | IC50 (SJSA-1; [7]): 0.065 µM
Structure (SMILES): CCC(O)(c1cc(F)c2c(c1)C(=O)N(Cc1ccc(C#N)cn1)[C@@]2(O[C@H]1C[C@@H](O)C1)c1ccc(Cl)cc1)[C@H]1CC[C@H](O)CC1 (single isomer, unassigned) [Example 518]

IC50 [1, 4]: 0.028 µM | IC50 [2, 5]: 21 µM | IC50 (SJSA-1; [6]): 0.02 µM
Structure (SMILES): CCC(O)(c1cc(F)c2c(c1)C(=O)N(Cc1ncc(Cl)cn1)[C@@]2(OC)c1ccc(Cl)cc1)C1(F)CCN(C2COC2)CC1 (single isomer, unassigned) [Example 552]

IC50 [3]: 3.1 nM | IC50 [1, 4]: 0.26 µM | IC50 (SJSA-1; [6]): 0.38 µM
Structure (SMILES): [2H]C([2H])(O)C1(C([2H])([2H])O[C@]2(c3ccc(Cl)cc3)c3c(F)cc(C(C)(C)O)cc3C(=O)N2Cc2ncc(C#N)cn2)CC1 [Example 513, 2-{[(1R)-1-(4-chlorophenyl)-7-fluoro-1-({1-[hydroxydideuteromethyl]cyclo-propyl}dideuteromethoxy)-5-(2-hydroxypropan-2-yl)-3-oxo-2,3-dihydro-1H-isoindol-2-yl]methyl}pyrimidine-5-carbonitrile]

IC50 [1, 4]: 0.21 µM | IC50 (SJSA-1; [6]): 0.07 µM
Structure (SMILES): CN1CCC(C(C)(O)c2cc(F)c3c(c2)C(=O)N(Cc2ncc(Cl)cn2)[C@@]3(OCC2(CO)CC2)c2ccc(Cl)cc2)CC1 (single isomer, unassigned) [Example 554]

IC50 [1, 4]: 0.021 µM | IC50 [2, 5]: 26 µM | IC50 (SJSA-1; [6]): 0.065 µM
Structure (SMILES): CCC(O)(c1cc(F)c2c(c1)C(=O)N(Cc1ncc(C#N)cn1)[C@@]2(O[C@H]1CCOC1)c1ccc(Cl)cc1)C1(F)CCN(C)CC1 (single isomer, unassigned) [Example 561]

IC50 [1, 4]: 0.028 µM | IC50 [2, 5]: 21 µM | IC50 (SJSA-1; [6]): 0.066 µM
Structure (SMILES): CCC(O)(c1cc(F)c2c(c1)C(=O)N(Cc1ncc(C#N)cn1)[C@@]2(OC)c1ccc(Cl)cc1)C1(F)CCN(C)CC1 (single isomer, unassigned) [Example 575]

IC50 [2, 5]: 15 µM | IC50 (SJSA-1; [6]): 0.027 µM
Structure (SMILES): CCC(O)(c1cc(F)c2c(c1)C(=O)N(Cc1ncc(Cl)cn1)[C@@]2(OC)c1ccc(Cl)cc1)C1(F)CCN(C)CC1 (single isomer, unassigned) [Example 563]

IC50 [1, 4]: 0.25 µM | IC50 (SJSA-1; [6]): 0.037 µM
Structure (SMILES): CC[C@@](O)(c1cc(F)c2c(c1)C(=O)N(Cc1ncc(C#N)cn1)[C@@]2(O[C@H]1CCOC1)c1ccc(Cl)cc1)C1CCN(C)CC1 [Example 557, 2-{[(1R)-1-(4-chlorophenyl)-7-fluoro-5-[(1S)-1-hydroxy-1-(1-methylpiperidin-4-yl)propyl]-3-oxo-1-[(3S)-oxolan-3-yloxy]-2,3-dihydro-1H-isoindol-2-yl]methyl}pyrimidine-5-carbonitrile]
